# Counter-ions that a name gives are not always drawn. Like-named read-outs stand apart in the source and are kept apart here.
# Target: SARS-CoV-2 3CLpro (Severe acute respiratory syndrome coronavirus 2, UniProt P0DTD1)
# Assay: biochemical
# Format: biochemical
# Design: Replicate_1 / Replicate_2 / mean / mean (LOPAC_screen_w_protease): unit not given here
# Settings: for mean (LOPAC screen with protease) / Replicate_1 (LOPAC screen with protease) / Replicate_2 (LOPAC screen with protease): primary screen at 5 µM; for inhibition at 5 µM: 4 h
# [1] = sheet LOPAC_screen_w_protease, mean of two replicates
# [2] = sheet LOPAC_screen_w_protease, replicate 1
# [3] = sheet LOPAC_screen_w_protease, replicate 2
# [4] = sheet LOPAC_screen_w_protease, LOPAC1280 primary screen at 5 µM, with protease, mean of the two replicates
# [5] = sheet LOPAC_screen_w_protease, LOPAC1280 primary screen at 5 µM, with protease, replicate 1
# [6] = sheet LOPAC_screen_w_protease, LOPAC1280 primary screen at 5 µM, with protease, replicate 2
# [7] = sheet LOPAC_screen_w_protease, primary screen with protease, mean of two replicates
# [8] = sheet LOPAC_screen_w_protease, primary screen with protease, replicate 1
# [9] = sheet LOPAC_screen_w_protease, primary screen with protease, replicate 2
# [10] = sheet LOPAC_screen_w_protease, primary screen with protease, 5 µM, mean of two replicates
# [11] = sheet LOPAC_screen_w_protease, primary screen with protease, 5 µM, replicate 1
# [12] = sheet LOPAC_screen_w_protease, primary screen with protease, 5 µM, replicate 2
# [13] = sheet LOPAC_screen_w_protease, primary screen with protease, 5 µM, mean of two replicates, read-out: mean
# [14] = sheet LOPAC_screen_w_protease, primary screen with protease, 5 µM, replicate 1, read-out: Replicate_1
# [15] = sheet LOPAC_screen_w_protease, primary screen with protease, 5 µM, replicate 2, read-out: Replicate_2
# [16] = read-out: Replicate_1 (LOPAC_screen_w_protease)
# [17] = read-out: Replicate_2 (LOPAC_screen_w_protease)
# [18] = sheet LOPAC_screen_w_protease, LOPAC1280 at 5 µM, mean of two replicates, read-out: mean
# [19] = sheet LOPAC_screen_w_protease, LOPAC1280 at 5 µM, replicate 1, read-out: Replicate_1
# [20] = sheet LOPAC_screen_w_protease, LOPAC1280 at 5 µM, replicate 2, read-out: Replicate_2
# [21] = sheet LOPAC_screen_w_protease, LOPAC1280 primary screen at 5 µM, with protease, mean of the two replicates, read-out: mean
# [22] = sheet LOPAC_screen_w_protease, LOPAC1280 primary screen at 5 µM, with protease, replicate 1, read-out: Replicate_1
# [23] = sheet LOPAC_screen_w_protease, LOPAC1280 primary screen at 5 µM, with protease, replicate 2, read-out: Replicate_2
# [24] = LOPAC1280 primary screen with protease, 5 µM compound, replicate 1, read-out: Replicate_1 (LOPAC_screen_w_protease)
# [25] = LOPAC1280 primary screen with protease, 5 µM compound, replicate 2, read-out: Replicate_2 (LOPAC_screen_w_protease)
# [26] = LOPAC1280 primary screen with protease, 5 µM compound, mean of the two replicates
# [27] = LOPAC1280 primary screen with protease, 5 µM compound, mean of two replicates
# [28] = LOPAC1280 primary screen with protease, 5 µM compound, replicate 1
# [29] = LOPAC1280 primary screen with protease, 5 µM compound, replicate 2
structure (smiles),measurement,setting,value
Cc1cccc(C)c1OCC(N)C(C)C.I (stereo not drawn) [R(-)-Me5],mean (LOPAC screen with protease),[1],9.695
same,Replicate_1 (LOPAC screen with protease),[2],9.8488
same,Replicate_2 (LOPAC screen with protease),[3],9.541
C[C@H](Cc1ccccc1)Nc1ncnc2c1ncn2[C@@H]1O[C@H](CO)[C@@H](O)[C@H]1O [R(-)-N6-(2-Phenylisopropyl)adenosine],mean,[4],0.4967
same,Replicate_1,[5],2.165
same,Replicate_2,[6],-1.171
Br.C=CCN1CCc2cccc3c2[C@H]1Cc1ccc(O)c(O)c1-3 [R(-)-N-Allylnorapomorphine hydrobromide],mean (LOPAC screen with protease),[1],97.2039
same,Replicate_1 (LOPAC screen with protease),[2],99.2109
same,Replicate_2 (LOPAC screen with protease),[3],95.1969
CCCN1CCc2cccc3c2[C@H]1Cc1ccc(O)c(O)c1-3.Cl [R(-)-Propylnorapomorphine hydrochloride],mean (LOPAC screen with protease),[1],100.867
same,Replicate_1 (LOPAC screen with protease),[2],101.086
same,Replicate_2 (LOPAC screen with protease),[3],100.647
"COc1ccc2c(c1O)-c1cccc3c1[C@@H](C2)N(C)CC3 [R(−)-apocodeine, reference compound]",inhibition of 3CLpro in the primary screen,5 µM,6%
Br.CCCN(CCC)[C@@H]1CCc2ccc(O)cc2C1 [R-(+)-7-Hydroxy-DPAT hydrobromide],mean,[7],2.2447
same,Replicate_1,[8],2.253
same,Replicate_2,[9],2.237
Br.CCCN(CCC)[C@@H]1CCc2cccc(O)c2C1 [R-(+)-8-Hydroxy-DPAT hydrobromide],mean,[10],-0.6201
same,Replicate_1,[11],2.2019
same,Replicate_2,[12],-3.442
C#CCN[C@H](C)Cc1ccccc1.Cl [R-(-)-Desmethyldeprenyl hydrochloride],Replicate_1 (LOPAC_screen_w_protease),,3.419
same,Replicate_2 (LOPAC_screen_w_protease),,0.5348
same,mean (LOPAC_screen_w_protease),,1.9771
CCCCCC(O)c1cccc(OCc2ccc3ccccc3n2)c1 (stereo not drawn) [REV 5901],inhibition at 5 µM,[13],0.337%
same,inhibition at 5 µM,[14],0.269%
same,inhibition at 5 µM,[15],0.406%
COC1(C2=NCCN2)COc2ccccc2O1.Cl (stereo not drawn) [RX 821002 hydrochloride],mean,[10],0.0583
same,Replicate_1,[11],-1.138
same,Replicate_2,[12],1.255
CNC(=C[N+](=O)[O-])NCCSCc1ccc(CN(C)C)o1 [Ranitidine hydrochloride],inhibition at 5 µM,[16],2.07%
same,inhibition at 5 µM,[17],1.3%
COc1ccccc1OCC(O)CN1CCN(CC(=O)Nc2c(C)cccc2C)CC1 (stereo not drawn) [Ranolazine dihydrochloride],inhibition at 5 µM,[18],0.975%
same,inhibition at 5 µM,[19],1.18%
same,inhibition at 5 µM,[20],0.768%
COC(=O)[C@H]1[C@H]2C[C@H]3c4[nH]c5ccccc5c4CCN3C[C@H]2CC[C@@H]1O [Rauwolscine hydrochloride],inhibition at 5 µM,"sheet LOPAC_screen_w_protease, primary screen with protease, compound at 5 µM, mean of two replicates, read-out: mean",3.1%
same,inhibition at 5 µM,"sheet LOPAC_screen_w_protease, primary screen with protease, compound at 5 µM, replicate 1, read-out: Replicate_1",3.55%
same,inhibition at 5 µM,"sheet LOPAC_screen_w_protease, primary screen with protease, compound at 5 µM, replicate 2, read-out: Replicate_2",2.65%
Nc1c(S(=O)(=O)O)cc(Nc2ccc(Nc3nc(Cl)nc(Nc4cccc(S(=O)(=O)O)c4)n3)c(S(=O)(=O)O)c2)c2c1C(=O)c1ccccc1C2=O [Reactive Blue 2],inhibition at 5 µM,[21],0.827%
same,inhibition at 5 µM,[22],-0.139%
same,inhibition at 5 µM,[23],1.79%
COC(=O)[C@H]1[C@H]2C[C@@H]3c4[nH]c5cc(OC)ccc5c4CCN3C[C@H]2C[C@@H](OC(=O)c2cc(OC)c(OC)c(OC)c2)[C@@H]1OC [Reserpine],inhibition at 5 µM,[16],2.93%
same,inhibition at 5 µM,[17],0.694%
Oc1ccc(/C=C/c2cc(O)cc(O)c2)cc1 [Resveratrol],inhibition at 5 µM,read-out: Replicate_2,-6.92%
CC1=C(/C=C/C(C)=C/C=C/C(C)=C/C(=O)Nc2ccc(O)cc2)C(C)(C)CCC1 [Retinoic acid p-hydroxyanilide],mean,[7],2.295
same,Replicate_1,[8],3.365
same,Replicate_2,[9],1.2239
C1COC(NC(C2CC2)C2CC2)=N1 [Rilmenidine hemifumarate],inhibition at 5 µM,[24],4.65%
same,inhibition at 5 µM,[25],-0.41%
same,mean (LOPAC_screen_w_protease),[26],2.121
Nc1nc2ccc(OC(F)(F)F)cc2s1 [Riluzole],inhibition at 5 µM,[24],2.44%
same,inhibition at 5 µM,[25],0.68%
same,mean (LOPAC_screen_w_protease),[27],1.558
Cc1nc2n(c(=O)c1CCN1CCC(c3noc4cc(F)ccc34)CC1)CCCC2 [Risperidone],inhibition at 5 µM,[18],0.962%
same,inhibition at 5 µM,[19],1.3%
same,inhibition at 5 µM,[20],0.627%
Cc1nc2sccn2c(=O)c1CCN1CCC(=C(c2ccc(F)cc2)c2ccc(F)cc2)CC1 [Ritanserin],inhibition at 5 µM,[24],2.24%
same,inhibition at 5 µM,[25],0.502%
same,mean (LOPAC_screen_w_protease),[27],1.373
CC(NCCc1ccc(O)cc1)C(O)c1ccc(O)cc1 (stereo not drawn) [Ritodrine hydrochloride],inhibition at 5 µM,[13],-0.392%
same,inhibition at 5 µM,[14],-0.659%
same,inhibition at 5 µM,[15],-0.126%
CNc1cc(NS(=O)(=O)c2ccc(N)cc2)nc(NC)n1.Cl.Cl [Ro 04-6790 dihydrochloride],mean,"sheet LOPAC_screen_w_protease, LOPAC1280 at 5 µM, mean of two replicates",0.9819
same,Replicate_1,"sheet LOPAC_screen_w_protease, LOPAC1280 at 5 µM, replicate 1",-0.4861
same,Replicate_2,"sheet LOPAC_screen_w_protease, LOPAC1280 at 5 µM, replicate 2",2.45
Cl.NCCNC(=O)c1ccc(Cl)cc1 [Ro 16-6491 hydrochloride],mean,[10],-0.0598
same,Replicate_1,[11],0.2844
same,Replicate_2,[12],-0.404
CCCCOc1cc(CC2CNC(=O)N2)ccc1OC (stereo not drawn) [Ro 20-1724],mean (LOPAC_screen_w_protease),[26],1.901
same,Replicate_1 (LOPAC_screen_w_protease),[28],0.9131
same,Replicate_2 (LOPAC_screen_w_protease),[29],2.888
O=C(c1cc(O)c(O)c([N+](=O)[O-])c1)c1ccccc1F [Ro 41-0960],mean,"sheet LOPAC_screen_w_protease, LOPAC1280 primary screen at 5 µM, with protease, mean of two replicates",-0.9763
same,Replicate_1,[5],-1.184
same,Replicate_2,[6],-0.7687
Cl.NCCNC(=O)c1ncsc1-c1cccc(F)c1 [Ro 41-1049 hydrochloride],mean,[10],-0.1611
same,Replicate_1,[11],1.896
same,Replicate_2,[12],-2.218
COc1ccc(C2CNC(=O)C2)cc1OC1CCCC1 (stereo not drawn) [Rolipram],inhibition at 5 µM,[13],-0.575%
same,inhibition at 5 µM,[14],-0.0105%
same,inhibition at 5 µM,[15],-1.14%
CC[C@H](CO)Nc1nc(NCc2ccccc2)c2ncn(C(C)C)c2n1 [Roscovitine],mean (LOPAC_screen_w_protease),,1.3343
same,inhibition at 5 µM,[16],3.12%
same,inhibition at 5 µM,[17],-0.448%
C=C(C)[C@H]1Cc2c(ccc3c2O[C@@H]2COc4cc(OC)c(OC)cc4[C@@H]2C3=O)O1 [Rotenone],inhibition at 5 µM,[21],0.71%
same,inhibition at 5 µM,[22],2.43%
same,inhibition at 5 µM,[23],-1.01%
CC(=O)c1c(O)c(C)c(O)c(Cc2c(O)c3c(c(C(=O)/C=C/c4ccccc4)c2O)OC(C)(C)C=C3)c1O [Rottlerin],inhibition at 5 µM,read-out: Replicate_1,4.21%
same,inhibition at 5 µM,read-out: Replicate_2,5.11%
same,inhibition at 5 µM,read-out: mean,4.66%
CCN(CC)CC.Nc1ncnc2c1ncn2C1OC2COP(O)(=S)O[C@@H]2[C@@H]1O (stereo partly drawn) [Rp-cAMPS triethylamine],Replicate_1,,2.931
same,Replicate_2,,3.042
same,mean,,2.9867
O=c1c2ccccc2nc2n1CCc1c-2[nH]c2ccccc12 [Rutaecarpine],inhibition at 5 µM,[21],0.598%
same,inhibition at 5 µM,[22],1.54%
same,inhibition at 5 µM,[23],-0.348%
N.N.N.N.N.N.N.N.N.N.N.N.N.N.[Cl-].[Cl-].[Cl-].[Cl-].[Cl-].[Cl-].[O-2].[O-2].[Ru+3].[Ru+3].[Ru+4] [Ruthenium red],mean (LOPAC_screen_w_protease),[26],1.824
same,Replicate_1 (LOPAC_screen_w_protease),[28],2.607
same,Replicate_2 (LOPAC_screen_w_protease),[29],1.042
CC(C)Cc1ccc([C@H](C)C(=O)O)cc1 [S(+)-Ibuprofen],mean (LOPAC_screen_w_protease),[27],1.7003
same,Replicate_1 (LOPAC_screen_w_protease),[28],1.122
same,Replicate_2 (LOPAC_screen_w_protease),[29],2.279
"CCCN1CCO[C@@H]2c3cc(O)ccc3OC[C@H]21.Cl [S(+)-PD 128,907 hydrochloride]",mean,[4],0.4405
same,Replicate_1,[5],0.5719
same,Replicate_2,[6],0.3091
CCN1CCC[C@H]1CNC(=O)c1c(OC)ccc(I)c1O [S(-)-IBZM],mean,[7],2.422
same,Replicate_1,[8],3.86
same,Replicate_2,[9],0.9843
CC(C)NCC(O)COc1cccc2[nH]ccc12 (stereo not drawn) [S(-)-Pindolol],mean (LOPAC_screen_w_protease),[26],1.809
same,Replicate_1 (LOPAC_screen_w_protease),[28],1.519
same,Replicate_2 (LOPAC_screen_w_protease),[29],2.1
same,mean,[10],0.4162
same,Replicate_1,[11],1.799
same,Replicate_2,[12],-0.9667

# — publication PMC7587356, “High-Throughput Screening for Inhibitors of the SARS-CoV-2 Protease Using a FRET-Biosensor” (Molecules, 2020)
